Data on eight compounds can be found in patent US4954358A, “Multiplication inhibitor for Bacillus cereus” (priority 1986, dated 1990).

What all share (type): cell-based
For assay [1], the system named is total viable active bacteria. The experiment in a line: Keeping test, potato salad not contaminated with Bacillus cereus, 30° C. To be noted: time without smell of putrefaction or change in outward appearance. How it is done:
(§1) Potato salad was prepared according to the following recipe.
(§2) Mayonnaise in the proportion of 10% by weight against the above materials was combined with various chemicals of prescribed concentrations listed in Table 5 and these were evenly mixed with the above food materials. Mixed specimens were prepared by inoculating Bacillus cereus in the form of a spore suspension in such a way as to make the bacterial number n×10^2 per gram on the final specimen.
(§3) The potato salad thus prepared was packed into plastic containers and left standing at 30° C. The bacterial number of total viable active bacteria and that of Bacillus cereus were measured with respect to the changes with time by the same method as in Example 1.
(§4) The effective keeping time and the figures in the upper and the lower spaces for each chemical in the list are used in the same meanings as in Example 4.

Assay [2] relates to Bacillus cereus. The assay can be described thus: Keeping test, potato salad contaminated with Bacillus cereus, 30° C. The note with it: time until Bacillus cereus 10^6 /g or more. On the procedure: as §1, §2
The same Bacillus cereus as in Example 1 was employed for this example.
as §3, §4

Assay [3] has as its system total viable bacteria. The assay can be described thus: Keeping test, cooked rice not contaminated with Bacillus cereus, 30° C. To be noted: time without smell of putrefaction or change in outward appearance.
For assay [4], the system named is Leuconostoc mesenteroides. The assay can be described thus: MIC, agar plate dilution method on standard nutrient agar. To be noted: 37° C., 24 hours. On the procedure:
(§5) The minimum growth inhibiting concentration (MIC) of various antibacterial substances against Bacillus cereus and other general putrefying bacteria were measured by using a standard nutrient agar (made by Difco Corp.) and by introducing the agar plate dilution method.
(§6) On a plain culture medium on which chemicals were placed in a stepwise dilution system the liquid spore suspension (×10^8 /ml) with respect to the strains of the genus of Bacillus and the respective pre-culture mediums (37° C., 24 hours) provided by Brain Heart Infusion Broth with respect to the other strains were smeared.

In assay [5] the test system is Bacillus coaglans. The description is as above. To be noted: Bacillus coaglans spores, 37° C., 24 hours. How it is done: as §5, §6
The test system of assay [6] is Staphylococcus aureus. The assay is described as above. To be noted: 37° C., 24 hours. How it is done: as §5, §6
Assay [7] relates to Streptococcus faecalis. Described as above. To be noted: 37° C., 24 hours. On the procedure:
as §5, §6

The subject of assay [8] is Bacillus cereus. The assay is described as above. To be noted: for minimum growth inhibiting concentration (MIC): Bacillus cereus spores, 37° C., 24 hours, judged with the naked eye; for growth inhibition effect against Bacillus cereus: standard nutrient agar, result in words. How it is done:
as §5, §6

The test system of assay [9] is Lactobacillus casei. The description is as above. The note with it: 37° C., 24 hours. On the procedure:
as §5, §6

The test system of assay [10] is Bacillus licheniformis. The assay is described as above. The note with it: Bacillus licheniformis spores, 37° C., 24 hours. How it is done:
as §5, §6

Assay [11] has as its system Bacillus subtilis. The assay is described as above. The note with it: Bacillus subtilis spores, 37° C., 24 hours. On the procedure:
as §5, §6

In assay [12] the test system is Bacillus megaterium. The assay is described as above. The note with it: Bacillus megaterium spores, 37° C., 24 hours. How it is done: as §5, §6
Assay [13] relates to Bacillus cereus. The experiment in a line: Keeping test, cooked rice contaminated with Bacillus cereus, 30° C. To be noted: for Effective keeping time: cooked rice contaminated with Bacillus cereus, 30° C., time until Bacillus cereus 10^6 /g or more; for effectiveness against Bacillus cereus in tests with actual food: cooked rice (Example 4), result in words. On the procedure: Two hundred grams of polished rice was washed in water, and with the addition of 240 ml of water, it was cooked for approximately 15 minutes in an electric rice-cooker which was of the type in public use. The rice cooked was left standing in hot steam for 10 minutes, and then left to cool off at room temperature. On the other hand, a suspension of spores of Bacillus cereus was prepared and added to the cooked rice, which had cooled off, in the proportion of n×10^2 to 1 g final specimen. Specimens were prepared by mixing the rice evenly with addition of the spores.
The cooked rice was put in a plastic case for each 120 g and its temperature was maintained at 30° C., and the number of total viable bacteria and the number of Bacillus cereus were measured periodically using a standard agar culture medium (37° C., 48 hours) and a polymyxin BCW agar culture medium with 5% egg yellow (37° C., 24 hours) for each In parallel with this measurement of the bacterium number, the specimens were examined concerning the outward appearance and the possible smell of putrefaction.
Each of the chemicals shown in Table 4 was dissolved in 20 ml of water to form an aqueous solution of a set concentration.

On to `O=C([O-])c1ccccc1.[Na+]` [sodium benzoate], for which the Effective keeping time in assay [1] (chemical 0.1% by weight) is 92.0 h; in assay [2] (chemical 0.1% by weight), 36.2 h.

With `C/C=C/C=C/C(=O)O` [Sorbic acid], the values for the Effective keeping time in assay [1] (chemical 0.1% by weight) and in [2] (chemical 0.1% by weight) were 96.0 h and 38.6 h, respectively.

Consider `CCO` [Ethyl alcohol], for which the Effective keeping time in [1] (chemical 1% by weight) stood at 29.2 h; in assay [2] (chemical 1% by weight), 10.0 h.

As for `CCCCCCCCCCCC(=O)OCC(O)CO` (stereo not drawn) [Lauric acid monoglyceride], the Effective keeping time in assay [1] (chemical 0.01% by weight) was determined as 22.0 h; in assay [3] (chemical 0.01% by weight), 40.0 h; in assay [13] (chemical 0.01% by weight), 8.2 h; in assay [2] (chemical 0.01% by weight) it was 11.5 h. Further, the minimum growth inhibiting concentration (MIC) is 0.01% in [4]; 0.0025 in [5] (in %); 0.01% in assay [6]; 0.01% in assay [7]; 0.0025 in [8] (in %); 0.01% in assay [9]. The “minimum growth inhibiting concentration (MIC)” value in [10] (in %), in assay [11] (in %) and in assay [12] (in %) was 0.0025 each time. Further, the “growth inhibition effect against Bacillus cereus” value (“growth inhibition effect” for short) in assay [8] was “showed effectiveness”.

Consider `NCC(=O)O` [Glycine], for which the Effective keeping time in assay [1] (chemical 1% by weight) was 36.0 h; in [3] (chemical 1% by weight), 110.0 h; in assay [13] (chemical 1% by weight), 10.1 h; in assay [2] (chemical 1% by weight), 12.0 h. Moreover, the minimum growth inhibiting concentration (MIC) is 4% in assay [4]; 1% in assay [5]; 5% in assay [6]; 4% in [7]; more than 8% in [8]; 4% in assay [9]. Further, the minimum growth inhibiting concentration (MIC) in [10] turned out to be 2%; in [11], 1%; in assay [12] it was 1%. In [13], the “effectiveness against Bacillus cereus in tests with actual food” value was “proved effective, though the effect is of no practical value”.

Consider `CC(=O)[O-].[Na+]` [Sodium acetate], for which the Effective keeping time turned out to be 27.0 h in assay [1] (chemical 0.4% by weight), 43.0 h in [3] (chemical 0.4% by weight), 11.5 h in assay [13] (chemical 0.4% by weight) and 10.0 h in [2] (chemical 0.4% by weight). Further, the minimum growth inhibiting concentration (MIC) in assay [4], in assay [5], in assay [6], in [7], in [8] and in assay [9] was more than 0.5% throughout. The minimum growth inhibiting concentration (MIC) in [10], in assay [11] and in assay [12] was more than 0.5% in each case. Moreover, in assay [13], the “effectiveness against Bacillus cereus in tests with actual food” value is given as “proved effective, though the effect is of no practical value”.

For the compound `O=P1([O-])OP(=O)([O-])OP(=O)([O-])OP(=O)([O-])OP(=O)([O-])OP(=O)([O-])O1.[Na+].[Na+].[Na+].[Na+].[Na+].[Na+]` [Sodium hexametaphosphate], the Effective keeping time is 35.0 h in assay [3] (chemical 0.5% by weight) and 9.2 h in assay [13] (chemical 0.5% by weight). In addition, the “minimum growth inhibiting concentration (MIC)” value in [4] (in %), in assay [5] (in %), in assay [6] (in %), in assay [7] (in %), in assay [8] (in %) and in assay [9] (in %) was 0.125 in each case. Further, the “minimum growth inhibiting concentration (MIC)” value in assay [10] (in %), in assay [11] (in %) and in [12] (in %) was 0.125 in each case. In assay [8], the “growth inhibition effect” value is listed as “showed effectiveness”.

As for Sodium polyphosphate, the Effective keeping time in [3] (chemical 0.5% by weight) turned out to be 35.0 h; in assay [13] (chemical 0.5% by weight), 9.0 h. In addition, the minimum growth inhibiting concentration (MIC) in assay [4], in [5], in assay [6], in assay [7], in [8] and in [9] was 0.5% each time. The “minimum growth inhibiting concentration (MIC)” value in assay [10] (in %), in [11] (in %) and in assay [12] (in %) was 0.025 throughout. In addition, the “growth inhibition effect” value in assay [8] is given as “showed effectiveness”.
